Where a SMILES comes first, the peptide text is derived from it. [ ]: non-standard residue; d: D form. Cha = N[C@@H](CC1CCCCC1)C(=O)O; NMeL = CN[C@@H](CC(C)C)C(=O)O; dNMeL = CN[C@H](CC(C)C)C(=O)O; dNMeV = CN[C@@H](C(=O)O)C(C)C; dAbu = CC[C@@H](N)C(=O)O
Columns and labels:
Conditions in all cases: Homo sapiens
[1] = Cytotoxicity against PL45 cells at 5 uM by [3H]thymidine inhibition assay; assay type: functional, cell-based
BXPC-3 = assay: Cytotoxicity against BxPC3 cells at 5 uM by [3H]thymidine inhibition assay; assay type: functional, cell-based
[2] = Cytotoxicity against WS1 cells; assay type: cell-based

Row | Compound | inhibition at 5 µM [1] | inhibition at 5 µM (BXPC-3) | IC50 [1] | IC50 (BXPC-3) | IC50 [2]
1 | CC(C)C[C@@H]1NC(=O)[C@H](C(C)C)NC(=O)[C@H](CC(C)C)N(C)C(=O)[C@H](CC(C)C)NC(=O)[C@H](Cc2ccccc2)NC1=O (cyclo(FL[NMeL]VL)) | 45% | 2% |  |  | 
2 | CC(C)C[C@@H]1NC(=O)[C@@H](C(C)C)N(C)C(=O)[C@H](CC(C)C)NC(=O)[C@@H](CC(C)C)NC(=O)[C@H](Cc2ccccc2)NC1=O (cyclo(F[dL]L[dNMeV]L)) | 21% | 35% |  |  | 
3 | CC(C)C[C@@H]1NC(=O)[C@H](Cc2ccccc2)NC(=O)[C@H](CC(C)C)NC(=O)[C@@H](C(C)C)NC(=O)[C@H](CC(C)C)NC1=O (cyclo(FLL[dV]L)) | 74% | 50% | 1.4 µM | 5 µM | 20 µM
4 | CC(C)C[C@@H]1NC(=O)[C@H](C(C)C)NC(=O)[C@H](CC(C)C)NC(=O)[C@@H](CC(C)C)N(C)C(=O)[C@H](Cc2ccccc2)NC1=O (cyclo([dNMeL]LVLF)) | 52% | 51% | 3.5 µM | 3.8 µM | 200 µM
5 | CC(C)C[C@@H]1NC(=O)[C@H](Cc2ccccc2)NC(=O)[C@H](CC(C)C)N(C)C(=O)[C@H](CC(C)C)NC(=O)[C@H](CC(C)C)NC1=O | 27% | 46% |  |  | 
6 | CC(C)C[C@@H]1NC(=O)[C@@H](CC(C)C)NC(=O)[C@H](Cc2ccccc2)NC(=O)[C@H](CC(C)C)NC(=O)[C@@H](C(C)C)NC1=O (cyclo(F[dL]L[dV]L)) | 32% | 13% |  |  | 
7 | CC(C)C[C@@H]1NC(=O)[C@H](Cc2ccccc2)NC(=O)[C@H](CC(C)C)NC(=O)[C@@H](C(C)C)N(C)C(=O)[C@H](CC2CCCCC2)NC1=O (cyclo([Cha][dNMeV]LFL)) | 45% | 52% |  |  | 
8 | CC(C)C[C@@H]1NC(=O)[C@H](CC(C)C)NC(=O)[C@H](Cc2ccccc2)NC(=O)[C@@H](Cc2ccccc2)NC(=O)[C@H](CC(C)C)NC1=O | 45% | 21% |  |  | 
9 | CC(C)C[C@@H]1NC(=O)[C@H](C(C)C)NC(=O)[C@H](CC(C)C)N(C)C(=O)[C@@H](CC(C)C)NC(=O)[C@H](Cc2ccccc2)NC1=O (cyclo(F[dL][NMeL]VL)) | 25% | 71% |  |  | 
10 | CC(C)C[C@@H]1NC(=O)[C@H](CC(C)C)NC(=O)[C@@H](Cc2ccccc2)NC(=O)[C@@H](CC(C)C)NC(=O)[C@@H](C(C)C)NC1=O (cyclo(LL[dV][dL][dF])) | 67% | 34% |  |  | 
11 | CC(C)C[C@@H]1NC(=O)[C@H](Cc2ccccc2)NC(=O)[C@H](CC(C)C)NC(=O)[C@@H](CO)NC(=O)[C@H](CC(C)C)NC1=O (cyclo(FLL[dS]L)) | 25% | 22% |  |  | 
12 | CC[C@H]1NC(=O)[C@H](CC(C)C)NC(=O)[C@H](CC(C)C)NC(=O)[C@H](Cc2ccccc2)NC(=O)[C@H](CC(C)C)NC1=O (cyclo(FLL[dAbu]L)) | 12% | 17% |  |  | 
13 | CC(C)C[C@@H]1NC(=O)[C@H](Cc2ccccc2)NC(=O)[C@@H](CC(C)C)NC(=O)[C@@H](C(C)C)NC(=O)[C@H](CC(C)C)NC1=O (cyclo(FLL[dV][dL])) | 41% | 16% |  |  | 
14 | CC(C)C[C@@H]1NC(=O)[C@H](C(C)C)NC(=O)[C@H](CC(C)C)NC(=O)[C@@H](CC(C)C)NC(=O)[C@H](Cc2ccccc2)NC1=O (cyclo(F[dL]LVL)) | 73% | 29% |  |  | 
15 | CC(C)C[C@@H]1NC(=O)[C@H](CC(C)C)NC(=O)[C@H](Cc2ccccc2)NC(=O)[C@@H](CO)NC(=O)[C@H](CC(C)C)NC1=O | 32% | 25% |  |  | 
16 | CC(C)C[C@@H]1NC(=O)[C@H](CC(C)C)NC(=O)[C@H](CC(C)C)NC(=O)[C@@H](Cc2ccccc2)NC(=O)[C@H](CC(C)C)NC1=O | 48% | 64% | 5 µM | 2 µM | 200 µM
17 | CC(C)C[C@@H]1NC(=O)[C@H](C(C)C)NC(=O)[C@@H](CC(C)C)NC(=O)[C@@H](CC(C)C)NC(=O)[C@H](Cc2ccccc2)NC1=O (cyclo(F[dL][dL]VL)) | 51% | 78% | 5 µM | 1.4 µM | 200 µM
18 | CC(C)C[C@@H]1NC(=O)[C@H](Cc2ccccc2)NC(=O)[C@H](CC(C)C)NC(=O)[C@H](C(C)C)NC(=O)[C@@H](CC(C)C)NC1=O (cyclo(FL[dL]VL)) | 24% | 74% |  |  | 
19 | CC(C)C[C@@H]1NC(=O)[C@H](CC(C)C)NC(=O)[C@H](CC(C)C)NC(=O)[C@@H](Cc2ccc(O)cc2)NC(=O)[C@H](CC(C)C)NC1=O | 46% | 33% |  |  | 
20 | CC(C)C[C@@H]1NC(=O)[C@@H](C(C)C)NC(=O)[C@H](CC(C)C)NC(=O)[C@H](CC(C)C)N(C)C(=O)[C@H](Cc2ccccc2)NC1=O (cyclo(F[NMeL]L[dV]L)) | 26% | 2% |  |  | 
21 | CC(C)C[C@@H]1NC(=O)[C@H](Cc2ccccc2)NC(=O)[C@H](CC(C)C)NC(=O)[C@@H](C(C)C)NC(=O)[C@H](CCCCNC(=O)Cc2ccccc2)NC1=O | 29% | 29% |  |  | 
22 | CC(C)C[C@@H]1NC(=O)[C@H](Cc2ccccc2)NC(=O)[C@H](CC(C)C)NC(=O)[C@@H](C(C)C)N(C)C(=O)[C@H](CC(C)C)NC1=O (cyclo(FLL[dNMeV]L)) | 29% | 34% |  |  | 
23 | CC(C)C[C@@H]1NC(=O)[C@H](Cc2ccccc2)NC(=O)[C@H](CC(C)C)NC(=O)[C@@H](Cc2ccccc2)NC(=O)[C@H](CC(C)C)NC1=O (cyclo(FLL[dF]L)) | 33% | 8% |  |  | 
24 | CC(C)C[C@@H]1NC(=O)[C@H](CC(C)C)NC(=O)[C@H](CC(C)C)NC(=O)[C@@H](Cc2c[nH]c3ccccc23)NC(=O)[C@H](CC(C)C)NC1=O | 18% | 30% |  |  | 
25 | CC(C)C[C@@H]1NC(=O)[C@H](CC(C)C)NC(=O)[C@H](Cc2ccccc2)NC(=O)[C@@H](CC(C)C)NC(=O)[C@H](CC(C)C)NC1=O | 41% | 34% |  |  | 
26 | CC(C)C[C@@H]1NC(=O)[C@H](C(C)C)NC(=O)[C@H](CC(C)C)NC(=O)[C@H](CC(C)C)N(C)C(=O)[C@H](Cc2ccccc2)NC1=O (cyclo(F[NMeL]LVL)) | 55% | 59% | 3 µM | 2 µM | 200 µM
27 | CC(C)C[C@@H]1NC(=O)[C@H](CC(C)C)NC(=O)[C@H](Cc2ccccc2)N(C)C(=O)[C@H](CC(C)C)NC(=O)[C@H](CC(C)C)NC1=O | 44% | 62% | 5 µM | 2 µM | 200 µM
28 | CC(C)C[C@@H]1NC(=O)[C@H](Cc2ccccc2)NC(=O)[C@H](CC(C)C)NC(=O)[C@@H](C(C)C)NC(=O)[C@H](CCCCN)NC1=O (cyclo(FLK[dV]L)) | 20% | 16% |  |  | 
29 | CC(C)C[C@@H]1NC(=O)[C@H](Cc2ccccc2)NC(=O)[C@H](CC(C)C)NC(=O)[C@H](CC(C)C)NC(=O)[C@H](CC(C)C)NC1=O | 25% | 42% | 70 µM | 25 µM | 200 µM
30 | CC(C)C[C@@H]1NC(=O)[C@H](Cc2ccccc2)NC(=O)[C@@H](CC(C)C)N(C)C(=O)[C@H](CC(C)C)NC(=O)[C@H](CC(C)C)NC1=O | 5% | 2% |  |  | 

— ChEMBL document CHEMBL1146254, “Identification of Sansalvamide a analog potent against pancreatic cancer cell lines” (Bioorg Med Chem Lett, 2007)
